From US20140335154A1, “METHODS AND FORMULATIONS TO ACHIEVE TUMOR TARGETED DOUBLE STRANDED RNA MEDIATED CELL DEATH” (MULTICELL IMMUNOTHERAPEUTICS, INC., priority 2013, published 2014)
Where two headings read alike, the source gives them in different places.

Tests used:
[1] = tested on: human primary fibroblasts; assay: MTT cytotoxicity on human primary fibroblasts (FIG. 4C); format: cell-based
Method: (§1) Analysis of Cytotoxicity and Anti-Proliferative Effect on Cells: Cytotoxicity was measured by MTT assay. Cells were seeded with the density of 5×10^3 cells/well in 96-well plate and incubated for 48 hours in a cell culture incubator, before being treated with compounds. Each compound was dissolved in RNase and DNase free PBS, and diluted to certain concentrations by the same PBS before being added into the cell culture supernatant. The final concentrations of 5 bps pA:pU were 50, 100, 150 and 200 μg/ml, and the gradient of 5 bps pA:pU s analogue was 50, 100, 300, 500 μg/ml. Poly(A:U) and Poly(I:C) were added at the final concentration of 200 μg/ml as controls. Cells without any treatment were the negative control. After incubation for specified times in the cell culture incubator, MTT reagent was added to the cells for the assay as described above.

[2] = tested on: cell line emulating normal hepatocytes; assay: TNF-alpha production in a cell line emulating normal hepatocytes; format: cell-based, human
Method: (§2) Analysis of Cytokines Release: Cells were plated into 96-well plate with the density of 2×10^4 cells/well, cultured and were allowed to become subconfluent. After changing to fresh medium, the cells were treated with 5 bp pA:pU with analogues of 5 bp pA:pU, 70 bp pA:pU, analogues 70 bp pA:pU, or control Poly(A:U) and Poly(I:C) at the final concentration of 100 μg/ml. Cells without treatment were the negative control and cells treated with 1 μg/ml LPS were the positive control. After incubation, the supernatants were collected, centrifuged and then put at −80° C. immediately. Select cytokines, such as IL-6, IL-12(p70), IFN-α2, Tumor Necrosis Factor-α (TNF-α), TNF-related apoptosis-inducing ligand (TRAIL), were analyzed by Bio-Plex Assay kits.

[3] = tested on: human liver cancer cell lines Huh7 and HepG2; assay: MTT assay of Lipofectamine formulated vs unformulated pA:pU (FIG. 6); format: cell-based; details: Huh7 and HepG2, 24 hour treatment
Method: In one embodiment, 5 bp dsRNAs are formulated using Lipofectamine 2000 to form lipid-based nanoparticles. One exemplary method follows the steps of: 1) in a microfuge tube 1.5 ul of Lipofectamine was diluted to a final volume of 23.5 ul using the appropriate media (per cell type); 2) 25 ul of the appropriate 5 bp dsRNAs analog dilution (to achieve the desired final per well concentration) was added to the diluted Lipofectamine and the mixture was incubated at Room Temperature (RT) for 5 minutes to form lipo-complexes; 3) 250 ul of the appropriate media was added to achieve a final volume of 300 ul; 4) 100 ul of the mixture from step 3 was added to each replicate and the cells was incubated for 24 hours.
Huh7 and HepG2 Cells were plated in a 96 well plate at a density of 2500 cells per well. Cells were incubated for 24 hours. After 24 hours of incubation, the medium was removed and cells were treated with various formulations of 5 bp pA:pU in triplicate in their respective culture mediums with […] 10% FBS. Untreated cells and Dox (10 uM) were used as controls. Cells were incubated for an additional 24 hours. After the 24 hour drug treatment, the medium was removed. Fresh culture medium will be added and the MTT assay was performed using the Life Technologies Vybrant MTT kit. […] The plate was read at 570 nm.

THP-1 cells [4] = assay: Cytokine production in THP-1 cells (ELISA / Bio-Plex); format: cell-based, human
Method: as §2
(§3) Experiments carried out in vitro compare low molecular weight dsRNAs (<15 bps) with high molecular weight dsRNAs (>70 bps). Data generated with dsRNA of similar size and chemical composition obtained by fractionation, indicate that low molecular weight dsRNAs (<15 bps) have substantial TNFalpha and cell death inducing properties in human monocytic THP-1 cells. […] The pro-inflammatory effect of low molecular weight dsrnas is evaluated by measuring cytokine production using elisa (r&d systems) in FIG. 3a as well as in FIG. 3b. cell proliferation, death, and apoptosis are measured by Ethidium bromide (EB), PI and YoPro staining (in FIG. 1), Fluorescence-Activated Cell Sorting (FACS) analysis and mtt assay, Annexin V and PI staining analyzed by flow cytometry (in FIGS. 3A, 3B, 4A, 4B, 4C, 5A and 5B).

[5] = tested on: human HCC lines Huh7, PLC/PRF/5, HepG2, primary liver cancer cells P7NSG59410 and P31NSG55368; assay: MTT cytotoxicity and anti-proliferative effect on human liver cancer cells (FIGS. 4A, 4B); format: cell-based
Method: Analysis of Growth Curve: Cell lines were seeded at different initial densities in the 96-well plate for 7 days. The medium was changed every day. The viability and metabolic rate of cultured cells was determined daily by assaying the reduction of 3-(4,5-dimethyl thiazol-2-yl)-2,5-diphenyl tetrazolium bromide (MTT) to formazan. After incubation period, MTT was added into each well in final concentration of 0.5 mg/ml, and incubated at the same condition for 4 h. Then the formazan was collected and dissolved in 120 ul DMSO. The absorption was measured at 560-562 nm in an ELISA reader with 620 nm as reference wave.
as §1
as §3, with “bps).” for “bps). Data generated with dsRNA of similar size and chemical composition obtained by fractionation, indicate that low molecular weight dsRNAs (<15 bps) have substantial TNFalpha and cell death inducing properties in human monocytic THP-1 cells.”

[6] = tested on: human HCC cell line HepG2 and THP-1 cells; assay: Cell apoptosis/necrosis, Annexin V and PI flow cytometry (FIG. 5B); format: cell-based; details: for cell death: HepG2 and THP-1, 200 μg/ml
Method: (§4) Analysis of Cell Apoptosis/Necrosis: Cells were plated into 24-well plates with the density of 1×10^5 cells/well, and cultured for 48 hours before treatments. The 5 bp polyA:polyU and its analogue, control Poly(A:U) and Poly(I:C) were added at the final concentration of 200 μg/ml into the cell culture supernatants. Cells without treatment were the negative control and the cells treated with 1 μg/ml Lipopolysaccharide (LPS) were the positive control. After incubation for specified time, the cells were harvested and washed with ice-cold PBS, resuspended in 100 μl AnnexinV binding buffer at a concentration of 1×10^5 cells/100 μl and incubated with 2 μl AnnexinV-FITC for 15 minutes at room temperature in the dark. Samples were washed with binding buffer and resuspended again in 100 μl same buffer. After adding 5 μl Propidium Iodide (PI), the samples were diluted with binding buffer and analyzed by flow cytometry (BD Biosciences). Apoptotic cells were identified as an AnnexinV-FITC-positive/PI-negative population.
as §3

THP-1 cells [7] = assay: MTT cytotoxicity on THP-1 cells (FIG. 4C); format: cell-based, human; details: THP-1, dose-effect
Method: as §1, with “After incubation for specified times in the cell culture incubator, MTT reagent was added to the cells for the assay as described above.” left out
as §3, with “bps).” for “bps). Data generated with dsRNA of similar size and chemical composition obtained by fractionation, indicate that low molecular weight dsRNAs (<15 bps) have substantial TNFalpha and cell death inducing properties in human monocytic THP-1 cells.”

[8] = tested on: human HCC cell line PLC/PRC/5 and human HCC cell line Huh7; assay: Cell apoptosis/necrosis, Annexin V and PI flow cytometry (FIG. 5A); format: cell-based; details: for cell death: PLC/PRC/5 and Huh7, 200 μg/ml
Method: as §4, §3

[9] = tested on: human HCC cell line PLC/PRC/5; assay: Cytokine production in HCC cell line PLC/PRC/5; format: cell-based; details: for TNFalpha induction: PLC/PRC/5 cancer cells
Method: as §2, §3

[10] = tested on: mouse liver cancerous cell line BNL 1ME A.7R.1; assay: MTT cytotoxicity on mouse liver cancerous cell line (FIG. 4B); format: cell-based; details: dose-effect
Method: as §1

[11] = tested on: THP-1, PLC/PRC/5, Huh7 and HepG2 cells; assay: Cytotoxicity, cell death and apoptosis of higher molecular weight dsRNA and controls (FIGS. 3A, 3B, 5A and 5B); format: cell-based
Method: as §1
Analysis of Cell Apoptosis/Necrosis: Cells were plated into 24-well plates with the density of 1×10^5 cells/well, and cultured for 48 hours before treatments. The 5 bp polyA:polyU and its analogue, control Poly(A:U) and Poly(I:C) were added at the final concentration of 200 μg/ml into the cell culture supernatants. Cells without treatment were the negative control and the cells treated with 1 μg/ml Lipopolysaccharide (LPS) were the positive control. […] After adding 5 μl Propidium Iodide (PI), the samples were diluted with binding buffer and analyzed by flow cytometry (BD Biosciences). […]
as §3, with “bps).” for “bps). Data generated with dsRNA of similar size and chemical composition obtained by fractionation, indicate that low molecular weight dsRNAs (<15 bps) have substantial TNFalpha and cell death inducing properties in human monocytic THP-1 cells.”

THLE2 cells = assay: MTT cytotoxicity on THLE2 cells emulating normal human liver cells (FIG. 4C); format: cell-based
Method: as §1

[12] = tested on: PLC/PRC/5 and THP-1 cells; assay: TNFalpha and IL-6 induction by higher molecular weight dsRNA and controls (FIGS. 3A, 3B); format: cell-based, human
Method: as §2
as §3, with “bps).” for “bps). Data generated with dsRNA of similar size and chemical composition obtained by fractionation, indicate that low molecular weight dsRNAs (<15 bps) have substantial TNFalpha and cell death inducing properties in human monocytic THP-1 cells.”

[13] = Huh7, PLC/PRF/5, HepG2, P7NSG59410, P31NSG55368

Q: With “5 base pairs polyadenylic-polyuridylic acid [5 bps pA:pU]” as the substance, how does the “cytotoxic or anti-proliferative effect on fibroblasts” value [1] read?
A: Its value is “cytotoxic or anti-proliferative effect”.

Q: And the “cytotoxic or anti-proliferative effect on fibroblasts” value ([1]; listed as 5 bp polyA:polyU)?
A: Its value is “sensitive”.

Q: What about the TNF-alpha production [2] of the same substance?
A: Its TNF-alpha production is “blunted”.

Q: What about the “biological activity in MTT assay” value [3] of the same substance?
A: Its value is “more biologically active than 15 bps”.

Q: And the IL-6 induction (THP-1 cells [4]; THP-1 cells)?
A: Its IL-6 induction is “substantially induced”.

Q: And the TNFalpha induction (THP-1 cells [4]; THP-1 cells)?
A: The TNFalpha induction was “substantially induced”.

Q: And the “cell growth inhibition and death inducing properties” value [5, 13]?
A: The value was “cell growth inhibition and death inducing properties”.

Q: What about the cell death [6] of the same substance?
A: Its cell death is “induces cell death”.

Q: And the “cell growth inhibition and death inducing properties” value (THP-1 cells [7]; listed as low molecular weight dsRNA (5 bps))?
A: The value was “anti-proliferative, pro-death effect”.

Q: What about the “cell growth inhibition and death inducing properties” value (THP-1 cells [7]; listed as polyA:polyU of 5 bps) of the same substance?
A: Its value is “cell growth inhibition and death inducing properties”.

Q: What about the cell death [8] of the same substance?
A: The cell death was “induces cell death”.

Q: What about the TNFalpha induction [9] of the same substance?
A: Its TNFalpha induction is “substantially induced”.

Q: And the IL-6 induction ([9]; PLC/PRC/5 cells)?
A: Its IL-6 induction is “substantially induced”.

Q: And the “cell growth inhibition and death inducing properties” value [10]?
A: Its value is “cell growth inhibition and death inducing properties”.

Q: And the “primary mechanism of cytotoxicity” value [11]?
A: The value was “cytolysis, with a minimal apoptosis component”.

Q: What about the “cytotoxicity on cells emulating normal human liver cells” value (THLE2 cells) of the same substance?
A: Its value is “only a modest effect”.

Q: And the “cytotoxicity on cells emulating normal human liver cells” value (THLE2 cells; listed as 5 bp polyA:polyU)?
A: Its value is “more refractory”.

Q: What about the “cytotoxicity on cells emulating normal human liver cells” value (THLE2 cells; listed as low molecular weight dsRNA of 5 bps) of the same substance?
A: The value was “more attenuated cytotoxicity profile”.

Q: How did the “cytokine production by monocytes” value (THP-1 cells [4]; relative to native 5 bps pA:pU) turn out when “2O′-methyl analogue of 5 base pairs polyA:polyU” was run?
A: The value was “attenuated”.

Q: What about the “cell growth inhibition and death inducing properties” value [5, 13] of the same substance?
A: Its value is “significantly attenuated”.

Q: And the “cell growth inhibition and death inducing properties” value ([5]; Huh7, PLC/PRF/5, HepG2, P7NSG59410, P31NSG55368, listed as 2O′-methyl analogue)?
A: The value was “less potent”.

Q: And the cell death [6]?
A: Its cell death is “attenuated cytotstatic/cytotoxic profile”.

Q: And the cell death [8]?
A: Its cell death is “attenuated cytotstatic/cytotoxic profile”.

Q: What about the TNFalpha induction [9] of the same substance?
A: Its TNFalpha induction is “elevated”.

Q: What about the “cell growth inhibition and death inducing properties” value [10] of the same substance?
A: The value was “attenuated cytotstatic/cytotoxic profile”.

Q: How did the IL-6 inducing capabilities [12] turn out when “polyinosinic:polycytidylic acid [pI:pC, reference compound]” was run?
A: The IL-6 inducing capabilities was “negligible”.

Q: And the TNFalpha inducing capabilities [12]?
A: The TNFalpha inducing capabilities was “negligible”.

Q: What about the “cytotoxicity or anti-proliferative effect” value ([6]; HepG2 and THP-1) of the same substance?
A: Its value is “no cytotoxicity or anti-proliferative effect”.

Q: What about the cell death [6] of the same substance?
A: Its cell death is “minimal cell death or apoptosis”.

Q: And the “cytotoxicity or anti-proliferative effect” value ([8]; PLC/PRC/5 and Huh7)?
A: The value was “no cytotoxicity or anti-proliferative effect”.

Q: And the cell death [8]?
A: The cell death was “minimal cell death or apoptosis”.

Q: What about the “cell death or apoptosis” value ([11]; FIGS. 3A, 3B, 5A and 5B) of the same substance?
A: Its value is “minimal cell death or apoptosis”.

Q: And the “cytotoxicity or anti-proliferative effect” value ([11]; FIGS. 3A, 3B, 5A and 5B)?
A: Its value is “no cytotoxicity or anti-proliferative effect”.
